Each block holds one compound with its values, some of them ahead of it.
Key:
[1] = target: T1, human soluble guanylate cyclase alpha 1 and beta 1 subunits (sGC) (Homo sapiens, UniProt Q02108+Q02153); test: sGC cellular activator assay (cGMP, HTRF); format: cell-based; settings: CHO cells stably expressing human sGC alpha 1/beta 1, preincubated with 40 microM ODQ; cGMP readout; assay run with and without 50% human serum, Table 2 does not say which
T1 construct: expressed in transfected cells; host or cells: Chinese hamster ovary (CHO) cells, stably transfected
T1 sequence (Q02108 1-690): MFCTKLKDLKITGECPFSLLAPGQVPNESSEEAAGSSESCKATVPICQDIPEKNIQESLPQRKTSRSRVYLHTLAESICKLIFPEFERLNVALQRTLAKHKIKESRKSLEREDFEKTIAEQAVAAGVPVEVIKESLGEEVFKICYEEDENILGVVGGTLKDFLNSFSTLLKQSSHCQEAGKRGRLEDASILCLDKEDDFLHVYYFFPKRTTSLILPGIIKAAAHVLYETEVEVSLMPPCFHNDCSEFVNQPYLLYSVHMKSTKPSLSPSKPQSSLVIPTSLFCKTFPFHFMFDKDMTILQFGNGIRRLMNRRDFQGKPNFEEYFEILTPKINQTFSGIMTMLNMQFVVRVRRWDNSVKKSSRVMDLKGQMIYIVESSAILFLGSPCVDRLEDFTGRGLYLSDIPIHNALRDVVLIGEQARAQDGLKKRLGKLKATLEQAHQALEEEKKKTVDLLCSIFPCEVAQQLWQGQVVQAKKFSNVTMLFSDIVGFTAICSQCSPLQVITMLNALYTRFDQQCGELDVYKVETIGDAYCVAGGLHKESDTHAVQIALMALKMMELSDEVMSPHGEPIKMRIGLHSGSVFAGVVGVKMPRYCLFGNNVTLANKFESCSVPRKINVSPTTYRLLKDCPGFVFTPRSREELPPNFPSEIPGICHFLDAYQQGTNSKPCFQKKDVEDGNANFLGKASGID
T1 sequence (Q02153 1-619): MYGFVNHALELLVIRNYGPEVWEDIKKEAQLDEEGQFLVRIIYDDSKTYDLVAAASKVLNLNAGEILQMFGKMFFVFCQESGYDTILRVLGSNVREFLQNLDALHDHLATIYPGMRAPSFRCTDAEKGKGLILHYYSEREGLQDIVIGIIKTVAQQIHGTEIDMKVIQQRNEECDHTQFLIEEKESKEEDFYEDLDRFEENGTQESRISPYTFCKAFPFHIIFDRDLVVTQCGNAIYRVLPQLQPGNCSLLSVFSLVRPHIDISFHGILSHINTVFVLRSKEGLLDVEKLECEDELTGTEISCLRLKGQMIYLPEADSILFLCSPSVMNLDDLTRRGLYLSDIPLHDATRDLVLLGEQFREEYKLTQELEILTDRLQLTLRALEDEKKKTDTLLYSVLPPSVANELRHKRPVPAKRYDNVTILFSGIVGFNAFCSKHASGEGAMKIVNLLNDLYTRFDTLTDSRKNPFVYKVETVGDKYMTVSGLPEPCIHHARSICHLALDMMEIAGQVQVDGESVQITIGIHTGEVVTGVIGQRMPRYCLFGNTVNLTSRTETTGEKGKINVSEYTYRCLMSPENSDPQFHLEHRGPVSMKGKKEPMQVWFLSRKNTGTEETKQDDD
Experimental: The sGC cellular activator assay is performed in the presence and absence of 50% human serum (HS) using Chinese hamster ovary cells that have been stably transfected to express the human soluble guanylate cyclase alpha 1 and beta 1 subunits (sGC). Cells are preincubated with 40 microM 1H-[1,2,4]oxadiazolo[4,3-a]quinoxalin-1-one (ODQ), an sGC inhibitor, for one h in buffer containing 0.1% bovine serum albumin and 3-isobutyl-1-methylxanthine (IBMX). Concentration response curves are prepared for test compounds in DMSO. An intermediate dilution of the compounds is performed in either buffer containing IBMX or type AB HS containing IBMX. Diluted compounds are added to cells and they are incubated at room temperature for thirty min. cGMP is measured using a CisBio homogeneous time resolved fluorescence kit and the EC50 is calculated for each compound.
Representative compounds of the present invention were tested for activity the above assay. Preferred compounds have an EC50 of <1,000 nM in the above assay and more preferred compounds have an EC50<200 nM.

[2] = human liver microsome (HLM) metabolic stability assay; format: in vitro ADME; settings: human liver microsomes; % hepatic blood flow calculated from t1/2
Experimental: The 5 time point, high-throughput human liver microsome (HLM) metabolic stability assay is designed to determine in vitro compound metabolism. Compounds are incubated with HLMs at a concentration of 1 uM, at 37° C., for a total of 60 min. The percent of compound remaining at 5, 15, 30, and 60 min is used to calculate the t½ (min), CLint (mL/min/kg), CLh (mL/min/kg), and % Qh. The assay is based on a 96-well format and can accommodate up to 92 compounds per plate (n=1).
Using the 96-well multi-channel head, the Biomek FX, equipped with a Peltier heating block/shaker, is programmed to accomplish the following steps: • 1. Pipette 175 uL of 1.15 mg/mL microsomes into each of the 96 conical inserts (Analytical Sales and Products, catalog number 96PL05) that fit into the plate of the Peltier heating block/shaker (the incubation plate) • 2. Add 5 uL of compounds from the assay plate to the microsomes and shake the mixture at 600 rpm at 42.1° C. for 10 min (a setting of 42.1° C. on the Peltier is required for the samples to incubate at 37° C.) • 3. After 10 min, prompt the user to add the NADPH plate to the deck and add 20 uL from the NADPH plate to the incubation plate to start the reaction • 4. Add 215 uL of 100%, cold acetonitrile containing an internal standard(s) to a 0 minute, 5 minute, 15 minute, 30 minute, and 60 minute “quench” plate • 5. At 0 min, 5 min, 15 min, 30 min, and 60 min into the incubation, aspirate 12 uL from the incubation mixture and add it to the quench solution to stop the reaction • 6. Add 185 uL HPLC grade water to each well of the 0, 5, 15, 30 and 60 minute quench plates to dilute compounds to the appropriate concentration for the mass spectrometer
After all time points are collected, the quench plates are sealed with 96-well pierceable plate mats or heat sealing foil and centrifuged at 3000 rpm for 15 min to pellet the microsomes.
The plates are analyzed using LC/MS/MS with electron spray ionization (ESI) and the previously determined MRM transitions. The LC method includes the following parameters:
Using an Excel template in Activitybase, the peak areas corresponding to 5, 15, 30 and 60 min are compared to the peak area at 0 min to calculate the percent of remaining compound using the following equation: Percent compound remaining=(AUC at Time t min/AUC at Time 0 min)×100 where t=0, 5, 15, 30 or 60 min.
Time (min) is plotted against the natural logarithm (Ln) of the percent compound remaining to determine the slope. The slope is used to calculate t½ (min) using the equation, t½=0.693/slope.
Preferred compounds have % Qh values of less than 24.

Compound: CC[C@H](C)Oc1c(C(=O)O)cnn1-c1cccc(-c2cccc(C)c2OCc2ccc3c(c2C)CCN(C2CCCOC2)C3)n1 (some centres unmarked) [Compound 135]
EC50 [1]: 54 nM | HLM (% Qh) [2]: 29 % Qh

Compound: CCCOc1c(C(=O)O)cnn1-c1cccc(-c2cccc(C)c2OCc2ccc3c(c2C)CCN(C2CCOCC2)C3)n1 [Compound 133]
EC50 [1]: 27 nM | HLM (% Qh) [2]: <24 % Qh

Compound: CCOc1c(C(=O)O)cnn1-c1cccc(-c2cccc(C)c2OCc2ccc3c(c2C)CN(C2CCOCC2)C3)n1 [Compound 119]
EC50 [1]: 57 nM | HLM (% Qh) [2]: <24 % Qh

Compound: COc1c(C(=O)O)cnn1-c1cccc(-c2cccc(C)c2OCc2ccc3c(c2)CCN(CC(F)(F)F)C3)n1 [Compound 11, 5-methoxy-1-(6-{3-methyl-2-[2-(2,2,2-trifluoro-ethyl)-1,2,3,4-tetrahydro-isoquinolin-6-ylmethoxy]-phenyl}-pyridin-2-yl)-1H-pyrazole-4-carboxylic acid]
EC50 [1]: 17 nM | HLM (% Qh) [2]: 47 % Qh

Compound: Cc1cccc(-c2cccc(-n3ncc(C(=O)O)c3OC(C)C)n2)c1OCc1ccc2c(c1)CCN([C@H]1CCOC1)C2 [Compound 111]
EC50 [1]: 99 nM | HLM (% Qh) [2]: <24 % Qh

Compound: COc1c(C(=O)O)cnn1-c1cccc(-c2cccc(Cl)c2OCc2ccc3c(c2)CCN(C2COC2)C3)n1 [Compound 7]
EC50 [1]: 32 nM | HLM (% Qh) [2]: <24 % Qh

Compound: CC(C)Oc1c(C(=O)O)cnn1-c1cccc(-c2ccccc2OCc2ccc3c(c2)CCN(C2CCOCC2)C3)n1 [Compound 144]
EC50 [1]: 460 nM | HLM (% Qh) [2]: <24 % Qh

Compound: CCOc1c(C(=O)O)cnn1-c1cccc(-c2cccc(C)c2OCc2cc(C)c3c(c2)CCN(C2COC2)C3)n1 [Compound 174]
EC50 [1]: 14 nM | HLM (% Qh) [2]: <24 % Qh

Compound: Cc1cccc(-c2cccc(-n3ncc(C(=O)O)c3OC(C)C)n2)c1OCc1ccc2c(c1C)CCN([C@H]1CCCOC1)C2 [Compound 117]
EC50 [1]: 29 nM | HLM (% Qh) [2]: 25 % Qh

Compound: CCOc1c(C(=O)O)cnn1-c1cccc(-c2cccc(C)c2OCc2ccc3c(c2C)CCN([C@H]2CCCOC2)C3)n1 [Compound 129]
EC50 [1]: 17 nM | HLM (% Qh) [2]: <24 % Qh

Compound: COc1c(C(=O)O)cnn1-c1cccc(-c2ccc(C)cc2OCc2ccc3c(c2C)CCN(C2CCOCC2)C3)n1 [Compound 99]
EC50 [1]: 160 nM | HLM (% Qh) [2]: <24 % Qh

Compound: CCOc1c(C(=O)O)cnn1-c1cccc(-c2cccc(C)c2OCc2ccc3c(c2)OCCN(C2CCOCC2)C3)n1 [Compound 131]
EC50 [1]: 410 nM | HLM (% Qh) [2]: 28 % Qh

Compound: CCOc1c(C(=O)O)cnn1-c1cccc(-c2cccc(C)c2OCc2ccc3c(c2C)CCN(CC2CCOCC2)C3)n1 [Compound 172]
EC50 [1]: 50 nM | HLM (% Qh) [2]: <24 % Qh

More lines, in order of falling EC50 [1], values ahead:

EC50 [1]: 130 nM | HLM (% Qh) [2]: <24 % Qh
Compound: COCCOc1c(C(=O)O)cnn1-c1cccc(-c2cccc(C)c2OCc2ccc3c(c2C)CCN(C2CCOCC2)C3)n1 [Compound 151]

EC50 [1]: 110 nM | HLM (% Qh) [2]: 44 % Qh
Compound: COc1c(C(=O)O)cnn1-c1cccc(-c2cccc(C)c2OCc2ccc3c(c2C)CCN(S(C)(=O)=O)C3)n1 [Compound 160]

EC50 [1]: 42 nM | HLM (% Qh) [2]: <24 % Qh
Compound: COc1c(C(=O)O)cnn1-c1cccc(-c2cccc(C)c2OCc2ccc3c(c2)CCN(C2COC2)C3)n1 [Compound 8]

EC50 [1]: 40 nM | HLM (% Qh) [2]: <24 % Qh
Compound: CCOc1c(C(=O)O)cnn1-c1cccc(-c2cccc(C)c2OCc2ccc3c(c2C)CCN(C2CCOCC2)C3)n1 [Compound 114]

EC50 [1]: 30 nM | HLM (% Qh) [2]: <24 % Qh
Compound: COc1c(C(=O)O)cnn1-c1cccc(-c2cccc(C)c2OCc2ccc3c(c2C)CCN(C2CCOCC2)C3=O)n1 [Compound 167, 5-Methoxy-1-(6-{3-methyl-2-[5-methyl-1-oxo-2-(tetrahydro-pyran-4-yl)-1,2,3,4-tetrahydro-isoquinolin-6-ylmethoxy]-phenyl}-pyridin-2-yl)-1H-pyrazole-4-carboxylic acid]

EC50 [1]: 28 nM | HLM (% Qh) [2]: <24 % Qh
Compound: CCOc1c(C(=O)O)cnn1-c1cccc(-c2cccc(C)c2OCc2ccc3c(c2CC)CCN(C2CCOCC2)C3)n1 [Compound 154]
